Assay results taken from patent publication US11206830B2, “Herbicidal composition comprising glufosinate or a salt thereof and pyroxasulfone” (BASF SE, priority 2008, dated 2021).
“And” between values parts separate entries of the source, which are not always exact repeats. Equal values may be shown once. Read-outs that look alike come from different tables or passages of the source.

Legend:
Format in all cases: in vivo
[1] = tested on: Echinochloa crus-galli (ECHCG); experiment: greenhouse post-emergence herbicidal activity on ECHCG
Description: (§1) For the post-emergence treatment, the test plants were first grown to a height of 3 to 20 cm, depending on the plant habit, and only then treated. Here, the herbicidal compositions were suspended or emulsified in water as distribution medium and sprayed using finely distributing nozzles.
(§2) The respective herbicides B and/or safener were formulated as 10% by weight strength suspension concentrate and introduced to the spray liquor with the amount of solvent system used for applying the active compound. Herbicides A, C and/or safener were used as commercially available formulations and introduced to the spray liquor with the amount of solvent system used for applying the active compound. In the examples, the solvent used was water.
(§3) The test period extended over 21 days. During this time, the plants were tended, and their response to the treatments with active compound was evaluated.
(§4) The evaluation for the damage caused by the chemical compositions was carried out using a scale from 0 to 100%, compared to the untreated control plants. […]
(§5) The value E, which is to be expected if the activity of the individual compounds is just additive, was calculated using the method of S. R. Colby (1967) “Calculating synergistic and antagonistic responses of herbicide combinations”, Weeds 15, p. […] For two component mixtures the value E was calculated by the following formula E=X+Y−(X·Y/100)
(§6) For three component mixtures the value E was calculated by the following formula E=X+Y+Z−(XY+XZ+YZ)/100+(X·YZ/10000) where X=effect in percent using herbicide A at an application rate a; • Y=effect in percent using herbicide B at an application rate b; • Z=effect in percent using herbicide C at an application rate c; • E=expected effect (in %) of A+B at application rates a+b. or • E=expected effect (in %) of A+B+C at application rates a+b+c.
(§7) If the value observed in this manner is higher than the value E calculated according to Colby, a synergistic effect is present.
(§8) Tables 1 to 12 relate to the herbicidal activity of the individual actives and of their combinations in post-emergence application assessed 20 DAT.

[2] = tested on: Chenopodium album (CHEAL); experiment: greenhouse post-emergence herbicidal activity on CHEAL
Description: as §1, §2, §3
(§9) The evaluation for the damage caused by the chemical compositions was carried out using a scale from 0 to 100%, compared to the untreated control plants. Here, 0 means no damage and 100 means complete destruction of the plants.
(§10) The value E, which is to be expected if the activity of the individual compounds is just additive, was calculated using the method of S. R. Colby (1967) “Calculating synergistic and antagonistic responses of herbicide combinations”, Weeds 15, p. 22 ff. For two component mixtures the value E was calculated by the following formula E=X+Y−(X·Y/100)
as §6, §7, §8

[3] = tested on: Matricaria inermis (MATIN); experiment: greenhouse post-emergence herbicidal activity on MATIN
Description: as §1, §2, §3, §9, §10, §6, §7, §8

[4] = tested on: Sinapis arvensis (SINAR); experiment: greenhouse post-emergence herbicidal activity on SINAR; settings: Mutarda arvensis, 480 h, read-out: % activity 20 DAT
Description: as §1, §2, §3, §4, §5, §6, §7, §8

[5] = tested on: Lolium multiflorum (LOLMU); experiment: greenhouse post-emergence herbicidal activity on LOLMU
Description: as §1, §2, §3, §9, §10, §6, §7, §8

[6] = tested on: Polygonum convolvulus (POLCO); experiment: greenhouse post-emergence herbicidal activity on POLCO
Description: as §1, §2, §3, §9, §10, §6, §7, §8

[7] = tested on: Avena fatua (AVEFA); experiment: greenhouse post-emergence herbicidal activity on AVEFA; settings: 480 h, read-out: % activity 20 DAT
Description: as §1, §2, §3, §9, §10, §6, §7, §8

[8] = tested on: Amaranthus retroflexus (AMARE); experiment: greenhouse post-emergence herbicidal activity on AMARE; settings: 480 h, read-out: % activity 20 DAT
Description: as §1, §2, §3, §4, §5, §6, §7, §8

[9] = tested on: Abutilon theophrasti (ABUTH); experiment: greenhouse post-emergence herbicidal activity on ABUTH
Description: as §1, §2, §3, §9, §10, §6, §7, §8

[10] = tested on: Digitaria sanguinalis (DIGSA); experiment: greenhouse post-emergence herbicidal activity on DIGSA
Description: as §1, §2, §3, §9, §10, §6, §7, §8

[11] = tested on: Setaria viridis (SETVI); experiment: greenhouse post-emergence herbicidal activity on SETVI; settings: 480 h, read-out: % activity 20 DAT
Description: as §1, §2, §3, §4, §5, §6, §7, §8

[12] = tested on: Alopecurus myosuroides (ALOMY); experiment: greenhouse post-emergence herbicidal activity on ALOMY
Description: as §1, §2, §3, §9, §10, §6, §7, §8

[13] = tested on: Galium aparine (GALAP); experiment: greenhouse post-emergence herbicidal activity on GALAP; settings: solo application
Description: as §1, §2, §3, §9, §10, §6, §7, §8

[14] = Fallopia convolvulus, 480 h, read-out: % activity 20 DAT
[15] = Digitaria sanguinalis, 480 h, read-out: % activity 20 DAT

In the case of `O=C(O)CNCP(=O)(O)O` [glyphosate, N-(phosphonomethyl)glycine], the inhibition at 50 g/ha ([1]; Echinochloa crus-galli, 480 h, read-out: % activity 20 DAT) is reported as 30%, the inhibition at 50 g/ha ([2]; Chenopodium album, 480 h, read-out: % activity 20 DAT, post-emergence, solo application, 50 g ai/ha) is reported as 40% and the inhibition at 200 g/ha ([2]; Chenopodium album, 480 h, read-out: % activity 20 DAT, post-emergence, solo application, 200 g ai/ha) is reported as 80%. For the same molecule, the “% activity 20 DAT” value ([2]; solo application, 50 g ai/ha) was 30%, the “% activity 20 DAT” value ([2]; solo application, 100 g ai/ha) was 50% and 85% and the inhibition at 100 g/ha ([3]; Matricaria, 480 h, read-out: % activity 20 DAT, post-emergence, solo application, 100 g ai/ha) was 90%. For the same molecule, the inhibition at 400 g/ha ([3]; Matricaria, 480 h, read-out: % activity 20 DAT, post-emergence, solo application, 400 g ai/ha) was 95%, the “% activity 20 DAT” value ([3]; solo application, 50 g ai/ha) was 65% and the inhibition at 50 g/ha [4] was 80%. The inhibition at 50 g/ha ([5]; Lolium multiflorum, 480 h, read-out: % activity 20 DAT, post-emergence, solo application, 50 g ai/ha) was 40%, the inhibition at 100 g/ha ([5]; Lolium multiflorum, 480 h, read-out: % activity 20 DAT, post-emergence, solo application, 100 g ai/ha) was 75% and the “% activity 20 DAT” value ([5]; solo application, 50 g ai/ha) was 45%. The inhibition at 50 g/ha [6, 14] was 30%, the inhibition at 100 g/ha [6, 14] was 50% and the inhibition at 200 g/ha [6, 14] was 50%. The inhibition at 400 g/ha [6, 14] was 90%, the inhibition at 100 g/ha [7] was 45% and the inhibition at 50 g/ha [8] was 90%. The inhibition at 50 g/ha ([9]; Abutilon theophrasti, 480 h, read-out: % activity 20 DAT, post-emergence, solo application, 50 g ai/ha) was 0%, the inhibition at 200 g/ha ([9]; Abutilon theophrasti, 480 h, read-out: % activity 20 DAT, post-emergence, solo application, 200 g ai/ha) was 70% and the inhibition at 50 g/ha [10, 15] was 70%. The inhibition at 100 g/ha [10, 15] was 85%, the inhibition at 50 g/ha [11] was 70% and the inhibition at 50 g/ha ([12]; Alopecurus myosuroides, 480 h, read-out: % activity 20 DAT, post-emergence, solo application, 50 g ai/ha) was 20%. The inhibition at 100 g/ha ([12]; Alopecurus myosuroides, 480 h, read-out: % activity 20 DAT, post-emergence, solo application, 100 g ai/ha) was 40%, the inhibition at 200 g/ha ([12]; Alopecurus myosuroides, 480 h, read-out: % activity 20 DAT, post-emergence, solo application, 200 g ai/ha) was 85% and the “% activity 20 DAT” value ([12]; solo application, 50 g ai/ha) was 15%. For the same molecule, the “% activity 20 DAT” value ([12]; solo application, 100 g ai/ha) was 30% and the “% activity 20 DAT” value ([13]; 50 g ai/ha) was 10%.

`Cn1nc(C(F)(F)F)c(CS(=O)(=O)C2=NOC(C)(C)C2)c1OC(F)F` [pyroxasulfone, 3-[5-(difluoromethoxy)-1-methyl-3-(trifluoromethyl)pyrazol-4-ylmethylsulfonyl]-4,5-dihydro-5,5-dimethyl-1,2-oxazole] showed an inhibition at 12.5 g/ha ([1]; Echinochloa crus-galli, 480 h, solo application, 12.5 g ai/ha, read-out: % activity 20 DAT) of 75%, an inhibition at 12.5 g/ha ([2]; Chenopodium album, 480 h, solo application, 12.5 g ai/ha, read-out: % activity 20 DAT) of 20% and an inhibition at 50 g/ha ([2]; Chenopodium album, 480 h, solo application, 50 g ai/ha, read-out: % activity 20 DAT) of 20%. The “% activity 20 DAT” value ([2]; solo application, 12.5 g ai/ha) was 35%, the inhibition at 12.5 g/ha ([3]; Matricaria, 480 h, solo application, 12.5 g ai/ha, read-out: % activity 20 DAT) was 0% and the inhibition at 25 g/ha ([3]; Matricaria, 480 h, solo application, 25 g ai/ha, read-out: % activity 20 DAT) was 0%. It also gave an inhibition at 100 g/ha ([3]; Matricaria, 480 h, solo application, 100 g ai/ha, read-out: % activity 20 DAT) of 15%, an inhibition at 12.5 g/ha ([4]; solo application, 12.5 g ai/ha) of 65% and an inhibition at 12.5 g/ha ([5]; Lolium multiflorum, 480 h, solo application, 12.5 g ai/ha, read-out: % activity 20 DAT) of 50%. The inhibition at 25 g/ha ([5]; Lolium multiflorum, 480 h, solo application, 25 g ai/ha, read-out: % activity 20 DAT) was 50%, the “% activity 20 DAT” value ([5]; solo application, 12.5 g ai/ha) was 55% and the inhibition at 12.5 g/ha ([6]; Fallopia convolvulus, 480 h, solo application, 12.5 g ai/ha, read-out: % activity 20 DAT) was 35%. For the same molecule, the inhibition at 25 g/ha ([6]; Fallopia convolvulus, 480 h, solo application, 25 g ai/ha, read-out: % activity 20 DAT) was 50%, the inhibition at 50 g/ha ([6]; Fallopia convolvulus, 480 h, solo application, 50 g ai/ha, read-out: % activity 20 DAT) was 50% and the inhibition at 100 g/ha ([6]; Fallopia convolvulus, 480 h, solo application, 100 g ai/ha, read-out: % activity 20 DAT) was 65%. The inhibition at 25 g/ha ([7]; solo application, 25 g ai/ha) was 75%, the inhibition at 12.5 g/ha ([8]; solo application, 12.5 g ai/ha) was 75% and the inhibition at 12.5 g/ha ([9]; Abutilon theophrasti, 480 h, solo application, 12.5 g ai/ha, read-out: % activity 20 DAT) was 40%. The inhibition at 50 g/ha ([9]; Abutilon theophrasti, 480 h, solo application, 50 g ai/ha, read-out: % activity 20 DAT) was 70%, the “% activity 20 DAT” value ([9]; solo application, 12.5 g ai/ha) was 60% and the “% activity 20 DAT” value ([9]; solo application, 25 g ai/ha) was 65%. The inhibition at 12.5 g/ha ([10]; Digitaria sanguinalis, 480 h, solo application, 12.5 g ai/ha, read-out: % activity 20 DAT) was 40%, the inhibition at 25 g/ha ([10]; Digitaria sanguinalis, 480 h, solo application, 25 g ai/ha, read-out: % activity 20 DAT) was 50% and the inhibition at 12.5 g/ha ([11]; solo application, 12.5 g ai/ha) was 70%. For the same molecule, the inhibition at 12.5 g/ha ([12]; Alopecurus myosuroides, 480 h, solo application, 12.5 g ai/ha, read-out: % activity 20 DAT) was 30%, the inhibition at 25 g/ha ([12]; Alopecurus myosuroides, 480 h, solo application, 25 g ai/ha, read-out: % activity 20 DAT) was 50% and the inhibition at 50 g/ha ([12]; Alopecurus myosuroides, 480 h, solo application, 50 g ai/ha, read-out: % activity 20 DAT) was 50%. For the same molecule, the “% activity 20 DAT” value ([12]; solo application, 12.5 g ai/ha) was 40%, the “% activity 20 DAT” value ([12]; solo application, 25 g ai/ha) was 70% and the inhibition at 25 g/ha ([13]; Galium aparine, 480 h, 25 g ai/ha, read-out: % activity 20 DAT) was 80%. The “% activity 20 DAT” value ([13]; 12.5 g ai/ha) was 70% and 40% and the “% activity 20 DAT” value ([13]; 25 g ai/ha) was 85%.

`CC(C)N(C)S(=O)(=O)NC(=O)c1cc(-n2c(=O)cc(C(F)(F)F)n(C)c2=O)c(F)cc1Cl` [saflufenacil] was tested, and the “% activity 20 DAT” value ([1]; solo application, 1.56 g ai/ha) was 0%, the “% activity 20 DAT” value ([2]; solo application, 1.56 g ai/ha) was 40% and the “% activity 20 DAT” value ([3]; solo application, 1.56 g ai/ha) was 20%. The “% activity 20 DAT” value ([3]; solo application, 3.13 g ai/ha) was 55%, the “% activity 20 DAT” value ([6]; solo application, 1.56 g ai/ha) was 45% and the “% activity 20 DAT” value ([6]; solo application, 3.13 g ai/ha) was 55%. The “% activity 20 DAT” value ([9]; solo application, 1.56 g ai/ha) was 45%, the “% activity 20 DAT” value ([10]; solo application, 1.56 g ai/ha) was 0% and the “% activity 20 DAT” value ([12]; solo application, 1.56 g ai/ha) was 0%. For the same molecule, the “% activity 20 DAT” value ([12]; solo application, 3.13 g ai/ha) was 0% and the “% activity 20 DAT” value ([13]; 3.13 g ai/ha) was 30%.
